Test results reported in patent publication US9492471B2, “Methods of treating a disease or disorder associated with Bruton'S Tyrosine Kinase” (Celgene Avilomics Research, Inc., priority 2013, dated 2016).
Like-named read-outs stand apart in the source and are kept apart here.

Key:
Experiment in all cases: HotSpot kinase profiling
Assay type in all cases: biochemical
PAK1 = target: T1, PAK1 (Homo sapiens, UniProt Q13153)
T1 construct: purchased Reaction Biology Corp
Method in brief: (§1)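 Radiometric kinase assay with P81 filter capture; each kinase was added to fresh substrate plus cofactors in reaction buffer and incubated 2 h at room temperature. Unreacted phosphate was washed off with 0.1% phosphoric acid before detection; percent inhibition is relative to DMSO control, averaged over replicates.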

SGK3/SGKL = target: T2, SGK3/SGKL (Homo sapiens, UniProt Q96BR1)
T2 construct: purchased Reaction Biology Corp
T2 sequence (Q96BR1 1-496): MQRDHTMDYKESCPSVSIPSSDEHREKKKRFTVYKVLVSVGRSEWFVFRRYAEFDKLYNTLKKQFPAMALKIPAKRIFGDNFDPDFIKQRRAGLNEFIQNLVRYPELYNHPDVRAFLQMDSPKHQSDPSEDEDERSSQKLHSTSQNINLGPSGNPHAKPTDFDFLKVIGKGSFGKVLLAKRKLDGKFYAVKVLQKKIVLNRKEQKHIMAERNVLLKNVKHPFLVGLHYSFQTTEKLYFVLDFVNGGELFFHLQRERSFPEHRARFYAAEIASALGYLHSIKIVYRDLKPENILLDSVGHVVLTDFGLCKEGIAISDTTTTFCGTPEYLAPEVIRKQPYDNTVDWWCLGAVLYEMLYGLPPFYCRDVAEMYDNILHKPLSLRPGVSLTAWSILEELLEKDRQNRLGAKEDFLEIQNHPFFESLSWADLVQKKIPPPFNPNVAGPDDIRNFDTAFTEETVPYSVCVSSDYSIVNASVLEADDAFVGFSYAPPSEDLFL
Method in brief: as §1

PKA = target: T3, PKA (Homo sapiens, UniProt P17612)
T3 construct: purchased Reaction Biology Corp
Method in brief: as §1

EPHA6 = target: T4, EPHA6 (Homo sapiens, UniProt Q9UF33)
T4 construct: purchased Reaction Biology Corp
T4 sequence (Q9UF33 23-1036): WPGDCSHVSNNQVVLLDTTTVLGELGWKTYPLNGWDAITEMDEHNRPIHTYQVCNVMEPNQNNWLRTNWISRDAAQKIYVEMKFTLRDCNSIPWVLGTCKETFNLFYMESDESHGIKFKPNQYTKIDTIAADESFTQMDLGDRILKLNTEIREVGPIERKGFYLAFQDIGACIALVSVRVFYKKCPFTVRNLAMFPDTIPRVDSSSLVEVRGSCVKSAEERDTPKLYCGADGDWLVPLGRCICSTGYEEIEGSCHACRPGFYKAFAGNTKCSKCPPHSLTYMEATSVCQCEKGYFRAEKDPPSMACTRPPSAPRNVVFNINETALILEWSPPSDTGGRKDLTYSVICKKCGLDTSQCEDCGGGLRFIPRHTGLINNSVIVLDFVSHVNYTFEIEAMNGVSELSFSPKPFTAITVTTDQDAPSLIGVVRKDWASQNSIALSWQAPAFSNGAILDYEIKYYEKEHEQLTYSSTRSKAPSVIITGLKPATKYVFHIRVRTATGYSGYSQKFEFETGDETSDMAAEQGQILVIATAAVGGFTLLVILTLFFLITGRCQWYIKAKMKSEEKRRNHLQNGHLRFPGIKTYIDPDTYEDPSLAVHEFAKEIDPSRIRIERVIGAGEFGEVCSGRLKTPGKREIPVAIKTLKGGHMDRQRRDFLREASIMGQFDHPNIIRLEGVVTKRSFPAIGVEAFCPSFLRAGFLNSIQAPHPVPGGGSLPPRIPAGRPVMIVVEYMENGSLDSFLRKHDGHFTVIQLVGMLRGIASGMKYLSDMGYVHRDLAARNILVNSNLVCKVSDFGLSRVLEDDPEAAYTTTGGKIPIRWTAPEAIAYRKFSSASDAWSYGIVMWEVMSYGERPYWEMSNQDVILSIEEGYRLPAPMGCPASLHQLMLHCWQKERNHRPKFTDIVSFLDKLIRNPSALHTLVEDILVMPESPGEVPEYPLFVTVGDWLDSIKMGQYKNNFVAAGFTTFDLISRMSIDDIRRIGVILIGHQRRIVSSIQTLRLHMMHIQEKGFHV
Method in brief: as §1

MEK1 = target: T5, MEK1 (Homo sapiens, UniProt Q02750)
T5 construct: purchased Reaction Biology Corp
T5 sequence (Q02750 whole entry): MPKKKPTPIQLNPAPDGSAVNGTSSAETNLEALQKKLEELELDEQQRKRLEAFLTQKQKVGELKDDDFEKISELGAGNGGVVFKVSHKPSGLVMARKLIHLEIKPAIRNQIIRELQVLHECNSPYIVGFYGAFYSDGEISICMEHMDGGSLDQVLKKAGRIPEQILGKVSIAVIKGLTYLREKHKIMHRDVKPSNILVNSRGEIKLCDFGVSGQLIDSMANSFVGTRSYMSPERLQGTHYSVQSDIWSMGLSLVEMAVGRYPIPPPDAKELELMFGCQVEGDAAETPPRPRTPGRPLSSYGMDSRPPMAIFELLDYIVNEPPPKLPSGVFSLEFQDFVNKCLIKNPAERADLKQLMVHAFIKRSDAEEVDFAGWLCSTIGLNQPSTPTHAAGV
Method in brief: as §1

[1] = read-out: % Enzyme Activity (relative to DMSO controls) Run 1
[2] = read-out: % Enzyme Activity (relative to DMSO controls) Run 2

T1 sequence (Q13153 whole entry): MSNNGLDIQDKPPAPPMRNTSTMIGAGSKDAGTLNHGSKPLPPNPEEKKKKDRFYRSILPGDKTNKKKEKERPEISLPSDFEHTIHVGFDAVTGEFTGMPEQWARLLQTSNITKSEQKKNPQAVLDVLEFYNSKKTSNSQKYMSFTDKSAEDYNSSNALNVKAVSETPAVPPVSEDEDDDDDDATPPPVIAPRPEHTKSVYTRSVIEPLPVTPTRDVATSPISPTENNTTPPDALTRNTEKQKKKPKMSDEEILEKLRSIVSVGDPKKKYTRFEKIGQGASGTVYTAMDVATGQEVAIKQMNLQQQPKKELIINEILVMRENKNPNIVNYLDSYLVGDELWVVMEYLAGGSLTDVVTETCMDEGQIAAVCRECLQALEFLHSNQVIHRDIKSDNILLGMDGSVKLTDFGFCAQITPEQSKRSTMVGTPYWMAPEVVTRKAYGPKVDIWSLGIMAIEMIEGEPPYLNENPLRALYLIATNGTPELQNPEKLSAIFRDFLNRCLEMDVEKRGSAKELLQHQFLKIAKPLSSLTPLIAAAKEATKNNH

C=CC(=O)Nc1cccc(Nc2nc(Nc3ccc(OCCOC)c(F)c3)ncc2F)c1 [Compound 2]
inhibition at 3 µM (PAK1): 2.58% | remaining activity at 3 µM (PAK1; [1]): 96.3% | remaining activity at 3 µM (PAK1; [2]): 98.6% | inhibition at 3 µM (SGK3/SGKL): -2.42% | remaining activity at 3 µM (SGK3/SGKL; [1]): 99.5% | remaining activity at 3 µM (SGK3/SGKL; [2]): 105% | inhibition at 3 µM (PKA): 14.5% | remaining activity at 3 µM (PKA; [1]): 85.8% | remaining activity at 3 µM (PKA; [2]): 85.1% | inhibition at 3 µM (EPHA6): 1.24% | remaining activity at 3 µM (EPHA6; [1]): 95.5% | remaining activity at 3 µM (EPHA6; [2]): 102% | inhibition at 3 µM (MEK1): -10.3% | remaining activity at 3 µM (MEK1; [1]): 109% | remaining activity at 3 µM (MEK1; [2]): 112%
